Data set [1] deals with T1, 20S proteasome chymotrypsin-like (CT-L) activity (Oryctolagus cuniculus, UniProt G1T4Q9).
T1 sequence (G1T4Q9 1-263): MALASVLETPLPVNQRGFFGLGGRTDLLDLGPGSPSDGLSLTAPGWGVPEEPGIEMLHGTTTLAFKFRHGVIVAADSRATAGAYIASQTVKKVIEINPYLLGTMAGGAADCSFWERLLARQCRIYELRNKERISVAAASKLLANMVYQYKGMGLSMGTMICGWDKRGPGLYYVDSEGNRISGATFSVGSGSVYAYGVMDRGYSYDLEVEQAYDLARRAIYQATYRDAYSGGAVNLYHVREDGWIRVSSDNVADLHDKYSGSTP
The experiment in a line: In vitro proteasome activity assay, CT-L (Suc-LLVY-AMC). In kind it is biochemical, rabbit. To be noted: for IC50: purified 20S proteasome. Here is the method: (§1) The assays were performed in vitro using purified 20S proteasome/inhibitor mixtures, with the activity of each subunit of the proteasome assessed upon incubation with its respective target peptide.
(§2) Purified rabbit 20S proteasome and fluorogenic CT-L substrate (Suc-LLVY-AMC) were purchased from Boston Biochem (Cambridge, Mass., USA). The T-L and CP-L fluorogenic substrates (Ac-RLR-AMC and Z-nLPnLD-AMC) were purchased from Enzo Life Sciences (Farmingdale, N.Y., USA). The 20S proteasome was diluted to 0.2 μg/μL in 20S proteasome buffer (50 mM HEPES pH 7.6, 150 mM NaCl and 1 mM DDT) and stored at −80° C. Purified 20S proteasome (8 ng) was pre-incubated with the indicated concentrations of inhibitors for 15 minutes and subsequently added to the AMC-labeled substrate peptide (50 μM) in assay buffer (25 mM HEPES, pH 7.5, 0.5 mM EDTA, 0.05% NP-40, and 0.001% SDS (w/v)) at 37° C. for 2 hours.

In data set [2] the target is T2, 20S proteasome T-L activity (Oryctolagus cuniculus, UniProt G1SWK8).
T2 construct: purchased Boston Biochem
T2 sequence (G1SWK8 1-271): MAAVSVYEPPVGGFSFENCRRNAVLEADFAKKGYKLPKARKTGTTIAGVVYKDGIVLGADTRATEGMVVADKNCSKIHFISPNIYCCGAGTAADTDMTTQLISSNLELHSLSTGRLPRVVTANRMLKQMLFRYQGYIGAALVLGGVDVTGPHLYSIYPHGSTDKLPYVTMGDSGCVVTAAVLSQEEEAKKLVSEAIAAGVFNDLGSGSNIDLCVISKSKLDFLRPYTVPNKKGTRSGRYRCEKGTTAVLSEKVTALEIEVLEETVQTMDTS
Put plainly: In vitro proteasome activity assay, T-L (Ac-RLR-AMC). To be noted: purified 20S proteasome; highest concentration tested 25,000 nM. The data set is classed as biochemical, rabbit. The protocol:
as §1, §2

The subject of data set [3] is STA-ET-1 Ewing's sarcoma cells. The experiment in a line: Cell viability assay (7AAD, 48 hours), STA-ET-1. To be noted: 48 hours exposure; read-out: Cancer cell lines IC50 (μM) STA-ET-1. In kind it is cell-based. The protocol:
(§3) Cell viability assays were performed as previously described. Briefly, cells were seeded in 96 well microtiterplates at a density of 3×10^4 cells per well in the presence of the indicated chemical. Cells were harvested 48 hours post-treatment, centrifuged at 1,300×g, washed in phosphate-buffered saline (PBS) and stained with 7AAD solution (2 μg/mL) (7-amino-actinomycin-D, Invitrogen, Carlsbad, Calif.) for 10 mins at room temperature. Viable cells were determined with the use of a FACS Calibur flow cytometer (Becton Dickinson Immunocytometry Systems), and analyzed with the use of FLOWJO (Tree Star, Inc) and GraphPad Prism (GraphPad Software Inc).
(§4) WE-68 and VH-64 Ewing's sarcoma cells were kindly supplied by F. van Valen (Department of Orthopaedic Surgery, Westfalische-Wilhelms-University, Germany).TC-252 and STA-ET-1 Ewing's sarcoma cells were kindly provided by G. Hamilton (Department of Surgery, University of Vienna, Austria) or P. Ambros (Children's Cancer Research Institute, St Anna Children's Hospital, Vienna, Austria). Primary human embryonic fibroblasts or primary human osteoblasts were collected from the Women's and Children's Hospital (North Adelaide, South Australia, Australia) or Royal Adelaide Hospital with patient consent. Mouse Embryonic Fibroblasts (MEFs) and its p53-null derivative were kindly supplied by Guillermina Lozano (Department of Genetics, Anderson Cancer Centre, University of Texas, Houston, Tex., USA). WE-68 cell lines were grown in RPMI-1640 media, whilst human embryonic fibroblasts and MEFs were grown in Dulbecco's Modified Eagle's Medium (DMEM). Media was supplemented with 10% FCS, 1% PSG and 10 mM HEPES. All cells were maintained at 37° C. in a humidified atmosphere of 5% CO2.

For data set [4], the system named is primary human osteoblasts. Put plainly: Cell viability assay (7AAD, 48 hours), normal osteoblasts. In kind it is cell-based. To be noted: Osteoblast, 48 hours exposure, read-out: Normal cell lines IC50 (μM) Osteoblasts. Here is the method: as §3, §4
Data set [5] has as its system normal cell lines (fibroblasts, osteoblasts). The experiment in a line: Cell viability assay, normal cell lines (average). The settings on record: Homo sapiens; average of fibroblasts and osteoblasts. In kind it is cell-based. The protocol:
as §3, §4

Data set [6] has as its system MEF p53-/- (mouse embryonic fibroblasts lacking p53). The experiment in a line: Cell viability assay, MEF p53-/-. The data set is classed as cell-based. The settings on record: for sensitivity of MEFs lacking p53 (p53-/-) to cytotoxic effects (in words): compared with p53+/+ MEFs.
Description: Although proteasome inhibitors have been translated from the bench to the clinic over the past decade, their specific mechanisms of action remain poorly understood. As discussed earlier, proteasomal over-activity in tumor cells has been attributed to aberrant degradation of numerous critical cancer-related pro proteins, including the pro-apoptotic tumor suppressor, p53. However, the role of p53 as a downstream mediator of cell death in response to proteasomal inhibition remains unclear. Therefore, we used our small library of CT-L specific proteasome inhibitors (compounds 1-6) to determine the role of p53 in their mechanism of cytotoxic action. For this purpose, we utilized mouse embryonic fibroblasts (MEFs) from transgenic p53^+/+ and p53^−/− littermates. This isogenic pair of cell lines are either competent (MEF p53^+/+) or deficient (MEF p53^−/−) in p53 protein and are used here to assess a potential role for p53 as a downstream inducer of cell death in response to proteasomal inhibition.
as §3
WE-68 and VH-64 Ewing's sarcoma cells were kindly supplied by F. van Valen (Department of Orthopaedic Surgery, Westfalische-Wilhelms-University, Germany).TC-252 and STA-ET-1 Ewing's sarcoma cells were kindly provided by G. Hamilton (Department of Surgery, University of Vienna, Austria) or P. Ambros (Children's Cancer Research Institute, St Anna Children's Hospital, Vienna, Austria). […]

Structures are written as SMILES. Where a SMILES comes first, the peptide text is derived from it. The star is where a group is joined. Cbz = O=C(OCc1ccccc1)*

As to `C#CCOc1ccc(C[C@@H](C=O)NC(=O)[C@H](CC(C)C)NC(=O)[C@H](CCCCN=[N+]=[N-])NC(=O)OCc2ccccc2)cc1` [Compound 4], the IC50 was 150 nM in data set [1]; more than 25000 nM in data set [2]; 2.6 µM in data set [3]; 10.4 µM in data set [4]; 25000 nM in data set [5].
Consider `CC(C)C[C@@H](C=O)NC(=O)[C@H](CC(C)C)NC(=O)[C@H](CC(C)C)NC(=O)OCc1ccccc1` [MG132, reference compound] (Cbz-Leu-Leu-Leu-aldehyde), for which the IC50 in data set [1] is 1.2 nM; in data set [2], 2000 nM; in data set [3], 0.59 µM; in data set [4], 2.7 µM; in data set [6] (Mus musculus, Fibroblast, read-out: IC50 in MEF p53-/-), 940 nM; in data set [5] it was 2800 nM.
Take `C#CCOc1ccc(C[C@@H](C=O)NC(=O)[C@H](CC(C)C)NC(=O)[C@H](CCN=[N+]=[N-])NC(=O)OCc2ccccc2)cc1` [Compound 2]: the IC50 in data set [1] was 355 nM; in data set [2] it was more than 25000 nM; in data set [3], 5.4 µM; in data set [4], 13.6 µM; in data set [5] it was 21500 nM.
As for `C#CCOc1ccc(C[C@@H](C=O)NC(=O)[C@H](CC(C)C)NC(=O)[C@H](Cc2ccc(N=[N+]=[N-])cc2)NC(=O)OCc2ccccc2)cc1` [Compound 6], the IC50 is 23 nM in data set [1]; more than 25000 nM in data set [2]; 2.4 µM in data set [3]; 11.6 µM in data set [4]; 28500 nM in data set [5]. In addition, the “sensitivity of MEFs lacking p53 (p53-/-) to cytotoxic effects (in words)” value in data set [6] is given as “resistant”.
Consider `C#CCOc1ccc(C[C@@H](C=O)NC(=O)[C@@H](NC(=O)[C@H](CCCCN=[N+]=[N-])NC(=O)OCc2ccccc2)[C@@H](C)CC)cc1` [Compound 5], for which the “increase in potency against CT-L relative to compound 4 (Leu at P2)” value in data set [1] amounted to 7.5 fold. Moreover, the IC50 in data set [1] is 21 nM; in data set [2] it was more than 25000 nM; in data set [3] it was 1 µM; in data set [4], 4.8 µM; in data set [5] it was 12400 nM. Further, the “sensitivity of MEFs lacking p53 (p53-/-) to cytotoxic effects (in words)” value in data set [6] was “resistant”.
On to `C#CCOc1ccc(C[C@@H](C=O)NC(=O)[C@H](CC(C)C)NC(=O)[C@H](CCCN=[N+]=[N-])NC(=O)OCc2ccccc2)cc1` [Compound 3], for which the IC50 in data set [1] was 54 nM; in data set [2] it was more than 25000 nM; in data set [3], 2.6 µM; in data set [4] it was 18.8 µM; in data set [5] it was 13800 nM.

Values taken from US20150299250A1, “MACROCYCLIC COMPOUNDS AND USES THEREOF” (ADELAIDE RESEARCH & INNOVATION PTY LTD, priority 2012, published 2015).
